Test [1] addresses T1, Alpha-2B adrenergic receptor (Homo sapiens, UniProt P18089).
T1 sequence (P18089 whole entry): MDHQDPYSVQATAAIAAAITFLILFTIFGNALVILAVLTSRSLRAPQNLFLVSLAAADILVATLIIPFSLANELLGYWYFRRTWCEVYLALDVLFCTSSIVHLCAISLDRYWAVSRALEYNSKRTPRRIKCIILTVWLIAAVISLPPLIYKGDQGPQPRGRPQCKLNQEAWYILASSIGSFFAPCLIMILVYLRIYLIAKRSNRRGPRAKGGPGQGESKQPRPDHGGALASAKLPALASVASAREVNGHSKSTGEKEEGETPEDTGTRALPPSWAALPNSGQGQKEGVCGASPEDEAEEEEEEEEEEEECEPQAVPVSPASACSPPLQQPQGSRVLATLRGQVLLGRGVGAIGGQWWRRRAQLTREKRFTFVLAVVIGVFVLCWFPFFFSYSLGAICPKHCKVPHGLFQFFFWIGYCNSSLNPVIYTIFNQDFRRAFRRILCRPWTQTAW
Put plainly: Inhibition of adrenergic alpha2B receptor (unknown origin) by PDSP assay.

The target in test [2] is T2, Muscarinic acetylcholine receptor M4 (Homo sapiens, UniProt P08173).
T2 sequence (P08173 whole entry): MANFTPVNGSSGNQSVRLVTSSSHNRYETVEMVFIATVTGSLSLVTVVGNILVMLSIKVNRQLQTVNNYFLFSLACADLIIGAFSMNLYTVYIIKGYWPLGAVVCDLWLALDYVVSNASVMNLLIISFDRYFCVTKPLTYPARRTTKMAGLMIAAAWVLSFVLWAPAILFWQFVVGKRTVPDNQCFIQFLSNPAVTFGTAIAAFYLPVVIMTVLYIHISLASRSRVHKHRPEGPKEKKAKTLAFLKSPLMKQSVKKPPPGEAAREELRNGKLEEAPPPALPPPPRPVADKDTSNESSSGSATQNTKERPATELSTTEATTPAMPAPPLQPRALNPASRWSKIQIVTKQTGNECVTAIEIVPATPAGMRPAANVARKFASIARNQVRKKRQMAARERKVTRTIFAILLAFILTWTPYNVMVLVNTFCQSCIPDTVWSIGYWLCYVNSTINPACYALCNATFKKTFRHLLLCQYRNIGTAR
Put plainly: Inhibition of muscarinic M4 receptor (unknown origin) by PDSP assay.

Test [3] addresses T3, Muscarinic acetylcholine receptor M1 (Homo sapiens) (UniProt P11229).
T3 sequence (whole entry): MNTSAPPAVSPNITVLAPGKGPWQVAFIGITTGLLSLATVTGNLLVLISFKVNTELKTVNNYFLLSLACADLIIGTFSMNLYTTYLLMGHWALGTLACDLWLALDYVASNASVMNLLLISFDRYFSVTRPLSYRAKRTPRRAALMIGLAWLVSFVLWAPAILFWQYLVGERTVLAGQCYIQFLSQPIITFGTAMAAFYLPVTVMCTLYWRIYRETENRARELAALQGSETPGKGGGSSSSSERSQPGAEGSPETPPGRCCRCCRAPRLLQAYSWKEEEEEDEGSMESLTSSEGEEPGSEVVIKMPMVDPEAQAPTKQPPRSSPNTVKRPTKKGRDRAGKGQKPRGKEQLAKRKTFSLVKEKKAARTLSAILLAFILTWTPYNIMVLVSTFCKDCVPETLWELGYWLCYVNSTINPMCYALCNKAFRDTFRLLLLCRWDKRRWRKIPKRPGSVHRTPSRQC
Put plainly: Inhibition of muscarinic M1 receptor (unknown origin) at 10 uM by PDSP assay relative to control.

For test [4], the target named is Kappa-type opioid receptor (Homo sapiens, UniProt P41145). In words: Inhibition of kappa opioid receptor (unknown origin) at 10 uM by PDSP assay relative to control.
Kappa-type opioid receptor, sequence (P41145 whole entry): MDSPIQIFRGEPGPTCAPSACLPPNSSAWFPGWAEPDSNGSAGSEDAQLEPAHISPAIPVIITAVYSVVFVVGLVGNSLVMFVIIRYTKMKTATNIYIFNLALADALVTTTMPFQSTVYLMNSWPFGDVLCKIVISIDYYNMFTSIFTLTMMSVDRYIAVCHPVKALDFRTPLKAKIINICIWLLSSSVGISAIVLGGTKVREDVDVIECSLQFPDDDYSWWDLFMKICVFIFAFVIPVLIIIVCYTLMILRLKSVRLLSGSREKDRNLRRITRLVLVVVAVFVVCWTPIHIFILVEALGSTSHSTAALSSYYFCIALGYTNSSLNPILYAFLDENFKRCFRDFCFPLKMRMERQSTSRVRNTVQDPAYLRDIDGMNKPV
The target in test [5] is T4, Muscarinic acetylcholine receptor M5 (Homo sapiens, UniProt P08912).
T4 sequence (P08912 whole entry): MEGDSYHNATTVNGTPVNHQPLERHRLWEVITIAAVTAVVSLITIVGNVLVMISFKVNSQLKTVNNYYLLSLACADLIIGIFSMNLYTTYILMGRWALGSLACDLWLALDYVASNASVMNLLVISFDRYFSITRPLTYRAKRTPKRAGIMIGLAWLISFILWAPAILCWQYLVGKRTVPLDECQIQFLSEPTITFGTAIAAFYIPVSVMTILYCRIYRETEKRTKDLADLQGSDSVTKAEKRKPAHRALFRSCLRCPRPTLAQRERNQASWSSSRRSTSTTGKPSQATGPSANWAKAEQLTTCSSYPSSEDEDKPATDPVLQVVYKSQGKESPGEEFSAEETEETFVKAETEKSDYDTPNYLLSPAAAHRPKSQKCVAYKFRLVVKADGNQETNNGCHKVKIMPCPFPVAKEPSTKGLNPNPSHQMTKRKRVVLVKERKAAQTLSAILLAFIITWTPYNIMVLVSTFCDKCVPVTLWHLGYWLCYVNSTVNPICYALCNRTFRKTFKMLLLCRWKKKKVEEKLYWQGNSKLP
In words: Inhibition of muscarinic M5 receptor (unknown origin) by PDSP assay.

Test [6] concerns the target T5, Alpha-2C adrenergic receptor (Homo sapiens) (UniProt P18825).
T5 sequence (whole entry): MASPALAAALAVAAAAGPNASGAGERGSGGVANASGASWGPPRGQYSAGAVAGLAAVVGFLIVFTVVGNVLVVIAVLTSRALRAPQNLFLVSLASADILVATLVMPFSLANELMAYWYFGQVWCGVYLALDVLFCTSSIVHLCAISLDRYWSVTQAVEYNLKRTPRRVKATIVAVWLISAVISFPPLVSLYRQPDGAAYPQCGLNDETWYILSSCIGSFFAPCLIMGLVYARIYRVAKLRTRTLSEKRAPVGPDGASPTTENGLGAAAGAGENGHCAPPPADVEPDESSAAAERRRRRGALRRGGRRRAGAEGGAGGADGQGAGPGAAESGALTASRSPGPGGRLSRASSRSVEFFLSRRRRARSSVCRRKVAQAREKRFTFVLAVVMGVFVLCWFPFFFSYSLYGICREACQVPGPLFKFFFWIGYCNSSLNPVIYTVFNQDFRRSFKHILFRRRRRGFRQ
In words: Inhibition of adrenergic alpha2C receptor (unknown origin) at 10 uM by PDSP assay relative to control.

In test [7] the target is Histamine H2 receptor (Homo sapiens, UniProt P25021). Put plainly: Inhibition of histamine H2 receptor (unknown origin) by PDSP assay.
Histamine H2 receptor, sequence (P25021 whole entry): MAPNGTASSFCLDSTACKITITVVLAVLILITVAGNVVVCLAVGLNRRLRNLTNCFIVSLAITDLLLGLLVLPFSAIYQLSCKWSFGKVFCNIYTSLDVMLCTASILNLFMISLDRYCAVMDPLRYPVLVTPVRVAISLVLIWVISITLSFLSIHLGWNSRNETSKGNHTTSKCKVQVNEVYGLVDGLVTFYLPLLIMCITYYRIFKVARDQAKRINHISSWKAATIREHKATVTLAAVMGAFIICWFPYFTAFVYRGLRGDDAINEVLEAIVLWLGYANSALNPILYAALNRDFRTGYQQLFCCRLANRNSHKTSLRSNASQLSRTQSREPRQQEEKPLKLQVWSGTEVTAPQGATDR

Where only a bound is given, the exact number is not on record here.

Consider `C1CCC(CN[C@H]2C3C4CC5C6C4CC3C6C52)CC1` (some centres not stated), for which the Ki came to 2540 nM in test [1], 707 nM in test [2] and 3000 nM in test [5]. Moreover, the inhibition in test [3] and in test [4] was less than 50% throughout.
In the case of `CN(CCc1cccc(F)c1)[C@H]1C2C3CC4C2C(=O)C2C4C3C21` (some centres not stated), the Ki stood at 2800 nM in test [2] and 4240 nM in test [5]. Further, the inhibition in test [3] and in test [4] was less than 50% in each case.
In test [2], `COc1cc(CN(C)[C@H]2C3C4CC5C6C4CC3C6C52)cc(OC)c1OC` (some centres not stated) displayed a Ki of 5910 nM. Moreover, the inhibition in test [3] and in test [4] was less than 50% each time.
With `CN(Cc1cccnc1)[C@H]1C2C3CC4C2C(=O)C2C4C3C21` (some centres not stated), the inhibition in test [6], in test [3] and in test [4] was less than 50% in each case. The Ki in test [2] came to 6990 nM.
As to `C1C2C3CC4C2C2C1C3[C@H](NCC13C5C6C7C5C1C7C63)C42` (some centres not stated), the Ki came to 1010 nM in test [1], 354 nM in test [2], 6270 nM in test [7] and 595 nM in test [5].
In the case of `CN(CCCc1cccc(F)c1)[C@H]1C2C3CC4C2C(=O)C2C4C3C21` (some centres not stated), the Ki worked out at 619 nM in test [2] and 2910 nM in test [5]. This compound also showed an inhibition in test [4] of less than 50%.
Regarding `COc1ccc(CN(C)[C@H]2C3C4CC5C6C4CC3C6C52)cc1OC` (some centres not stated), the Ki is 6810 nM in test [2] and 1870 nM in test [7]. Further, the inhibition in test [3] and in test [4] was less than 50% each time.
With `CN(CCc1ccccn1)[C@H]1C2C3CC4C5C3CC2C5C41` (some centres not stated), the inhibition in test [6] and in test [3] was less than 50% each time. Besides, the Ki in test [2] was determined as 3810 nM.
As to `c1cc2c(cc1CN[C@H]1C3C4CC5C6C4CC3C6C51)OCO2` (some centres not stated), the values for the Ki in test [1], in test [2] and in test [7] were 3260 nM, 6530 nM and 1160 nM, respectively. Further, the inhibition in test [3] and in test [4] was less than 50% throughout.
Regarding `CN(CC1CCCCC1)[C@H]1C2C3CC4C5C3CC2C5C41` (some centres not stated), the inhibition in test [6], in test [3] and in test [4] was less than 50% each time.
As for `c1ccc(CCN[C@H]2C3C4CC5C6C4CC3C6C52)nc1` (some centres not stated), the figures for the Ki in test [2] and in test [5] were 1300 nM and 5800 nM, respectively. The inhibition in test [3] and in test [4] was less than 50% in each case.
For the compound `CN(CCCc1cccc(F)c1)[C@H]1C2C3CC4C5C3CC2C5C41` (some centres not stated), in test [2], the inhibition constant Ki came to 3900 nM. Moreover, the inhibition in test [3] and in test [4] was less than 50% each time.
Consider `CN(Cc1cccnc1)[C@H]1C2C3CC4C5C3CC2C5C41` (some centres not stated), for which the inhibition in test [6] and in test [3] was less than 50% throughout.
On to `CN(Cc1ccccc1)[C@H]1C2C3CC4C2C(=O)C2C4C3C21` (some centres not stated), for which the figures for the Ki in test [2] and in test [5] were 1260 nM and 1990 nM, respectively. The compound further yielded an inhibition in test [4] of less than 50%.
Consider `COc1ccc(CN[C@H]2C3C4CC5C6C4CC3C6C52)cc1OC` (some centres not stated), for which the inhibition in test [3] and in test [4] was less than 50% throughout. The Ki in test [7] is 1480 nM.
Consider `CN(CCc1ccccn1)[C@H]1C2C3CC4C2C(=O)C2C4C3C21` (some centres not stated), for which the inhibition in test [6], in test [3] and in test [4] was less than 50% throughout. Moreover, the Ki in test [1] was more than 10000 nM.
As for `CN(CCc1ccccc1)[C@H]1C2C3CC4C5C3CC2C5C41` (some centres not stated), the Ki was found to be 1270 nM in test [1] and 3040 nM in test [7]. Also, the inhibition in test [3] and in test [4] was less than 50% throughout.
Take `c1ccc(CN[C@H]2C3C4CC5C6C4CC3C6C52)cc1` (some centres not stated): the inhibition in test [6] and in test [3] was less than 50% in each case. Also, the Ki in test [7] turned out to be 3470 nM.
Turning to `COc1cc(CN[C@H]2C3C4CC5C6C4CC3C6C52)cc(OC)c1OC` (some centres not stated), the Ki was 665 nM in test [1] and 1730 nM in test [7]. The inhibition in test [3] is less than 50%.
For `COc1ccc(CN(C)[C@H]2C3C4CC5C3C(=O)C3C5C4C32)cc1OC` (some centres not stated), the inhibition in test [6], in test [3] and in test [4] was less than 50% each time. Besides, the inhibition constant Ki in test [2] is 7380 nM.
Regarding `c1ccc(CCN[C@H]2C3C4CC5C6C4CC3C6C52)cc1` (some centres not stated), the inhibitory constant (Ki) in test [2] was 892 nM; in test [7], 3900 nM; in test [5], 2000 nM. The inhibition in test [3] and in test [4] was less than 50% throughout.
As for `CN(Cc1ccccc1)[C@H]1C2C3CC4C5C3CC2C5C41` (some centres not stated), the inhibition in test [6], in test [3] and in test [4] was less than 50% throughout. This compound had an inhibition constant (Ki) in test [7] of more than 10000 nM.
Turning to `CN(Cc1cccc(F)c1)[C@H]1C2C3CC4C2C(=O)C2C4C3C21` (some centres not stated), the Ki in test [2] came out at 4040 nM. For the same compound, the inhibition in test [3] and in test [4] was less than 50% in each case.
On to `CN(Cc1ccc2c(c1)OCO2)[C@H]1C2C3CC4C5C3CC2C5C41` (some centres not stated), for which the inhibition in test [6], in test [3] and in test [4] was less than 50% in each case. Besides, in test [7], the Ki is 8520 nM.
As to `CN(CCc1ccccc1)[C@H]1C2C3CC4C2C(=O)C2C4C3C21` (some centres not stated), the inhibition constant (Ki) is 3590 nM in test [2], more than 10000 nM in test [7] and 2420 nM in test [5]. The inhibition in test [3] and in test [4] was less than 50% each time.

Source of the values: ChEMBL document CHEMBL2429832, “N-substituted 8-aminopentacyclo[5.4.0.0(2,6).0(3,10).0(5,9)]undecanes as σ receptor ligands with potential neuroprotective effects” (Bioorg Med Chem, 2013).
